According to patent US20250090439A1, “COMPOSITION COMPRISING HYDRANGENOL AS ACTIVE INGREDIENT FOR IMPROVING HAIR OR SCALP CONDITION” (COSMAX BIO CO., LTD., priority 2021, published 2025):

Key:
HFDPC cell lines = test: Cell proliferation in dermal papilla cells (MTT assay); assay type: cell-based, human; settings: treated for 3 and 6 days, 25 μg/ml and 50 μg/ml
Experimental: Based on the results of the dermal papilla cell toxicity test confirmed above, the cell proliferation effect of the Hydrangea serrata extract and hydrangenol obtained in Examples 1 and 2 was confirmed. HFDPC cell lines were seeded into a 96-well plate at a concentration of 1.0×10^3 cells/well and incubated in a CO2 incubator conditioned at 37° C., 95% humidity, and 5% CO2 for 24 hours. Subsequently, after treatment with samples at each concentration, cell proliferation was measured by MTT assay after 1, 3, and 6 days of incubation. More specifically, after treatment with samples of each concentration, the incubation was proceeded for 24, 72, and 144 hours, and then each cell was treated with 100 μl of 0.5 mg/ml MTT solution, and after 4 hours, the solution was completely removed and the plates dissolved in DMSO were measured at an absorbance of […].

[1] = tested on: human follicle dermal papilla cells (HFDPC); test: Cytotoxicity in dermal papilla cells (MTT assay); assay type: cell-based; settings: 24 hours
Experimental: It was confirmed whether the Hydrangea serrata extract and hydrangenol obtained according to Examples 1 and 2 were cytotoxic to human follicle dermal papilla cells (HFDPC).
HFDPC cells were cultured in follicle dermal papilla cell growth medium including supplement mix (5% fetal calf serum, 0.5% bovine pituitary extract, 0.5 μg basic fibroblast growth factor, and 2.5 mg insulin) and 1% antibiotic antimycotic solution. HDFPC cell lines were seeded into a 96-well plate at a concentration of 1.0×10^4 cells/well and incubated in a CO2 incubator conditioned at 37° C., 95% humidity, and 5% CO2 for 24 hours. Subsequently, the medium was replaced with medium without supplement mix and was treated with samples of each concentration and after 24 hours of incubation, cell viability was measured by MTT assay. The MTT assay is a method to measure the amount of formazan formed from MTT reduced by the mitochondria of living cells. More specifically, 100 μl of 0.5 mg/mL MTT solution was applied to each cell and incubated for 4 hours. Then, the solution was completely removed and the absorbance of the plate dissolved in DMSO was measured at 540 nm.

5α-reductase = biological target: T1, 5α-reductase (Rattus norvegicus, UniProt P24008); test: 5α-reductase enzyme activity inhibition (rat liver homogenate, testosterone quantified by HPLC); assay type: biochemical; settings: treated at 125 μg/ml, 250 μg/ml, or 500 μg/ml; 37° C., 30 minutes; FIGS. 7A and 7B
T1 construct: After centrifuging the homogenate at 10,000 xg for 10 minutes, the supernatant was […] to prepare an enzyme solution; from tissue; host or cells: liver of 7-week-old male SD rat (10,000 x g supernatant of homogenate)
T1 sequence (P24008 1-259): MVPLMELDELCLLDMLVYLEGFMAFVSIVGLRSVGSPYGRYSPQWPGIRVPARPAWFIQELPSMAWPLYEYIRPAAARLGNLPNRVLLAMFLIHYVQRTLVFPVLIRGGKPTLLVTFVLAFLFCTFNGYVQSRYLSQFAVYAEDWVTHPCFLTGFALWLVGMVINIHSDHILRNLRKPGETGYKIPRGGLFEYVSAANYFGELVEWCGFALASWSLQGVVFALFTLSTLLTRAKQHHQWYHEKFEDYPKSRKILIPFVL
Experimental: 5α-reductase reduces testosterone to produce dihydrotestosterone (DHT). After reacting rat liver homogenate with testosterone, the ability to inhibit 5α-reductase enzyme activity was measured using a method of quantify testosterone.
First, a 7-week-old male SD rat was prepared and anesthetized using ethyl ether. After SD rats were laparotomised, the hepatic portal vein thereof was nicked, and cold STM buffer (270 mM sucrose, 10 mM Tris-HCl, pH7.5, 1 mM MgCl2, G-biosciences, USA) was injected into the left ventricle using a syringe. The injection was continued until the STM buffer was perfused into the liver and the color of the liver changed from dark red to light pink. Afterwards, the liver was removed, transferred to a beaker, cut with scissors, and homogenized after adding STM buffer in an amount three times that of the liver. After centrifuging the homogenate at 10,000 xg for 10 minutes, the supernatant was […] to prepare an enzyme solution. […] The dichloromethane layer was separated, concentrated, dissolved in 50% methanol, and quantified using high-performance chromatography. The 5α-reductase inhibition ability was calculated using the formula: 5α-reductase inhibition ability (%)=[1−(area value of sample-area value of blank sample)/(area value of test group-area value of blank sample)]×100.

## O=C1OC(c2ccc(O)cc2)Cc2cccc(O)c21 (stereo not shown) [hydrangenol, 8-hydroxy-3-(4-hydroxyphenyl)-3,4-dihydroisochromen-1-one]
HFDPC cell lines
  cell growth (cell proliferation by MTT): cell growth was significantly increased
[1]; 1.56, 3.12, 6.25, 12.5, 25, 50 and 100 μg/ml
  cytotoxicity (cell viability by MTT): no cytotoxicity was shown at all concentrations
[1]; concentrations of 3.12 μg/ml to 100 μg/ml
  cell growth: significantly increase cell growth
5α-reductase
  5α-reductase inhibitory activity: 5α-reductase inhibitory activity in a concentration-dependent manner
